# From ChEMBL document CHEMBL1909046, “DrugMatrix in vitro pharmacology data”
# System: not listed separately
# Experiment: DRUGMATRIX: Sodium/nucleoside co-transporter radioligand binding (ligand: nitrobenzylthioinosine)
# Format: cell membranes, Cavia porcellus, Dunkin-Hartley, Cerebral cortex, Membrane
# Settings: Not Active = under 50% inhibition at 10 µM
Structure (SMILES),IC50,Ki
O=c1c(-c2ccc(O)cc2)coc2cc(O)cc(O)c12 [GENISTEIN],Not Active,Not Active
CCC1=C(C)CN(C(=O)NCCc2ccc(S(=O)(=O)NC(=O)N[C@H]3CC[C@H](C)CC3)cc2)C1=O [GLIMEPIRIDE],Not Active,Not Active
Nc1cc(-c2ccncc2)c[nH]c1=O [INAMRINONE],Not Active,Not Active
N[C@@H](Cn1ccc(=O)c(O)c1)C(=O)O [L-MIMOSINE],Not Active,Not Active
CN1C(=O)CN=C(c2ccccc2)c2cc([N+](=O)[O-])ccc21 [NIMETAZEPAM],Not Active,Not Active
CCN(C(C)=O)c1cccc(-c2ccnc3c(C#N)cnn23)c1 [ZALEPLON],Not Active,Not Active

# Target: T1, Alpha-1B adrenergic receptor (Rattus norvegicus, UniProt P15823)
# T1 sequence (P15823 whole entry): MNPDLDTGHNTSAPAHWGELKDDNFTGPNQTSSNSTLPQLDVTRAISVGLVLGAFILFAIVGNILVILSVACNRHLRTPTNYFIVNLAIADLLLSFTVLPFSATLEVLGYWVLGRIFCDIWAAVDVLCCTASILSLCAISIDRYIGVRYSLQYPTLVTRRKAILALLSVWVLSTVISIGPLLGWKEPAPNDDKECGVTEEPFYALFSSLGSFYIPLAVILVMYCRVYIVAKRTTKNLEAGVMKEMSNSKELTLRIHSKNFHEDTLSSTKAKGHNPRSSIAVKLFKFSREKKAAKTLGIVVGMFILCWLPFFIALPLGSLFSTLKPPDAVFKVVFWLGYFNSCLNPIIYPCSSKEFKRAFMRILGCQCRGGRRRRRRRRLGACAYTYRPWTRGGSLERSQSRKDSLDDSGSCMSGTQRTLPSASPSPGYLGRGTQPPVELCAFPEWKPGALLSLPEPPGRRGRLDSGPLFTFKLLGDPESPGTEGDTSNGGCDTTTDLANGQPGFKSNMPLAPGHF
# Experiment: DRUGMATRIX: Alpha-1B adrenergic receptor radioligand binding (ligand: prazosin)
# Format: cell membranes, Wistar, Liver, Membrane
# Settings: Not Active = under 50% inhibition at 10 µM
row,Structure (SMILES),IC50
1,O=c1c(-c2ccc(O)cc2)coc2cc(O)cc(O)c12 [GENISTEIN],Not Active
2,CCC1=C(C)CN(C(=O)NCCc2ccc(S(=O)(=O)NC(=O)N[C@H]3CC[C@H](C)CC3)cc2)C1=O [GLIMEPIRIDE],Not Active
3,Nc1cc(-c2ccncc2)c[nH]c1=O [INAMRINONE],Not Active
4,N[C@@H](Cn1ccc(=O)c(O)c1)C(=O)O [L-MIMOSINE],Not Active
5,CN1C(=O)CN=C(c2ccccc2)c2cc([N+](=O)[O-])ccc21 [NIMETAZEPAM],Not Active
6,CCN(C(C)=O)c1cccc(-c2ccnc3c(C#N)cnn23)c1 [ZALEPLON],Not Active

# Target: Aldo-keto reductase family 1 member B1 (Rattus norvegicus, UniProt P07943);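 further: inhibition of aldose reductase enzyme activity, measured with DL-glyceraldehyde as the substrate; in other assays of this panel Not Active means under 50% inhibition at 10 µM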
# Experiment: biochemical
# Format: tissue-based, Lens of camera-type eye
# Settings: not given
row,Structure (SMILES),IC50
1,CCC1=C(C)CN(C(=O)NCCc2ccc(S(=O)(=O)NC(=O)N[C@H]3CC[C@H](C)CC3)cc2)C1=O [GLIMEPIRIDE],Not Active
2,Nc1cc(-c2ccncc2)c[nH]c1=O [INAMRINONE],Not Active
3,N[C@@H](Cn1ccc(=O)c(O)c1)C(=O)O [L-MIMOSINE],Not Active
4,CN1C(=O)CN=C(c2ccccc2)c2cc([N+](=O)[O-])ccc21 [NIMETAZEPAM],Not Active
5,CCN(C(C)=O)c1cccc(-c2ccnc3c(C#N)cnn23)c1 [ZALEPLON],Not Active

# Same assay, conditions: read-out: IC50
row,Structure (SMILES),IC50 [µM]
1,O=c1c(-c2ccc(O)cc2)coc2cc(O)cc(O)c12 [GENISTEIN],45

# Target: T2, Type-2 angiotensin II receptor (Homo sapiens, UniProt P50052); further: in other assays of this panel Not Active means under 50% inhibition at 10 µM
# T2 sequence (P50052 whole entry): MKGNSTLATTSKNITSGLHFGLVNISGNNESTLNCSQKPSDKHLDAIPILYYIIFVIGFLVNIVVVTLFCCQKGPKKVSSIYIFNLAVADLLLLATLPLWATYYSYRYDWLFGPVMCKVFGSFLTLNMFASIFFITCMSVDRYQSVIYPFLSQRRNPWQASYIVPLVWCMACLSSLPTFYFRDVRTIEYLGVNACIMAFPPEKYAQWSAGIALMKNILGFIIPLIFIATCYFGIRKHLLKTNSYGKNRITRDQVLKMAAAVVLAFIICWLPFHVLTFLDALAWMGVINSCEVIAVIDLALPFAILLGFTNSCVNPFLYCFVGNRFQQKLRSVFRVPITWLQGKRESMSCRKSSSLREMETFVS
# Experiment: biochemical
# Format: cell-based, CHO-K1
# Settings: cho-k1
row,Structure (SMILES),IC50
1,O=c1c(-c2ccc(O)cc2)coc2cc(O)cc(O)c12 [GENISTEIN],Not Active
2,CCC1=C(C)CN(C(=O)NCCc2ccc(S(=O)(=O)NC(=O)N[C@H]3CC[C@H](C)CC3)cc2)C1=O [GLIMEPIRIDE],Not Active
3,Nc1cc(-c2ccncc2)c[nH]c1=O [INAMRINONE],Not Active
4,N[C@@H](Cn1ccc(=O)c(O)c1)C(=O)O [L-MIMOSINE],Not Active
5,CN1C(=O)CN=C(c2ccccc2)c2cc([N+](=O)[O-])ccc21 [NIMETAZEPAM],Not Active
6,CCN(C(C)=O)c1cccc(-c2ccnc3c(C#N)cnn23)c1 [ZALEPLON],Not Active

# Target: T3, Thromboxane-A synthase (Homo sapiens, UniProt P24557);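 further: enzyme inhibition assay with PGH2 supplied as substrate; in other assays of this panel Not Active means under 50% inhibition at 10 µM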
# T3 sequence (P24557 whole entry): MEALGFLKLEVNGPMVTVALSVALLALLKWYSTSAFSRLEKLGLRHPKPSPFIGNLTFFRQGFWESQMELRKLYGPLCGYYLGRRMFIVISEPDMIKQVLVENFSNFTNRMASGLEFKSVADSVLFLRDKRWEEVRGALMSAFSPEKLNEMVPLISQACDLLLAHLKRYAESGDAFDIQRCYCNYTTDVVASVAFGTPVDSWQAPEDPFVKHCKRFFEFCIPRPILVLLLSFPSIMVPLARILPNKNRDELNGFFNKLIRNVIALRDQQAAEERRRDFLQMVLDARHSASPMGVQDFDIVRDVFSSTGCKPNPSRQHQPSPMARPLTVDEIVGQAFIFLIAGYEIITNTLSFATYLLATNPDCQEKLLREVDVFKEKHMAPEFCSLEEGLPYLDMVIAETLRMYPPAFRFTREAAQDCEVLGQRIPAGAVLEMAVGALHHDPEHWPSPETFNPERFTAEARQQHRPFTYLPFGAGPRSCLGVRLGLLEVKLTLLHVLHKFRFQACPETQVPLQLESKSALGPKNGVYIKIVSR
# Experiment: biochemical
# Format: tissue-based, Platelet
# Settings: platelet
row,Structure (SMILES),IC50
1,CCC1=C(C)CN(C(=O)NCCc2ccc(S(=O)(=O)NC(=O)N[C@H]3CC[C@H](C)CC3)cc2)C1=O [GLIMEPIRIDE],Not Active
2,Nc1cc(-c2ccncc2)c[nH]c1=O [INAMRINONE],Not Active
3,N[C@@H](Cn1ccc(=O)c(O)c1)C(=O)O [L-MIMOSINE],Not Active
4,CN1C(=O)CN=C(c2ccccc2)c2cc([N+](=O)[O-])ccc21 [NIMETAZEPAM],Not Active
5,CCN(C(C)=O)c1cccc(-c2ccnc3c(C#N)cnn23)c1 [ZALEPLON],Not Active

# Same assay, conditions: read-out: IC50
row,Structure (SMILES),IC50 [µM]
1,O=c1c(-c2ccc(O)cc2)coc2cc(O)cc(O)c12 [GENISTEIN],7.72

# Target: 5-hydroxytryptamine receptor 1B (Rattus norvegicus, UniProt P28564); further: in other assays of this panel Not Active means under 50% inhibition at 10 µM
# Experiment: not given
# Format: cell membranes, Wistar, Cerebral cortex, Membrane
# Settings: not given
# 5-hydroxytryptamine receptor 1B, sequence (P28564 whole entry): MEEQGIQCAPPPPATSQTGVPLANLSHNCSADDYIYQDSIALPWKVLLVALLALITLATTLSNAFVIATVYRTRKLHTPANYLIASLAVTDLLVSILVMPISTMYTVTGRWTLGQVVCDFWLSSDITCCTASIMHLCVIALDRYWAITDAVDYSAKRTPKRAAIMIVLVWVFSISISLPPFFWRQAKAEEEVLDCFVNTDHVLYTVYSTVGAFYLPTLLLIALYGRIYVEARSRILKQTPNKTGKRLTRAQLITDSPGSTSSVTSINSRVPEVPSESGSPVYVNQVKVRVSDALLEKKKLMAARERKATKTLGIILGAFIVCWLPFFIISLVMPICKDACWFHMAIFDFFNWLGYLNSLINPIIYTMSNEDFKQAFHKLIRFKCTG
row,Structure (SMILES),IC50
1,O=c1c(-c2ccc(O)cc2)coc2cc(O)cc(O)c12 [GENISTEIN],Not Active
2,CCC1=C(C)CN(C(=O)NCCc2ccc(S(=O)(=O)NC(=O)N[C@H]3CC[C@H](C)CC3)cc2)C1=O [GLIMEPIRIDE],Not Active
3,Nc1cc(-c2ccncc2)c[nH]c1=O [INAMRINONE],Not Active
4,N[C@@H](Cn1ccc(=O)c(O)c1)C(=O)O [L-MIMOSINE],Not Active
5,CN1C(=O)CN=C(c2ccccc2)c2cc([N+](=O)[O-])ccc21 [NIMETAZEPAM],Not Active
6,CCN(C(C)=O)c1cccc(-c2ccnc3c(C#N)cnn23)c1 [ZALEPLON],Not Active

# Target: T4, Androgen receptor (Rattus norvegicus, UniProt P15207); further: in other assays of this panel Not Active means under 50% inhibition at 10 µM
# T4 sequence (P15207 whole entry): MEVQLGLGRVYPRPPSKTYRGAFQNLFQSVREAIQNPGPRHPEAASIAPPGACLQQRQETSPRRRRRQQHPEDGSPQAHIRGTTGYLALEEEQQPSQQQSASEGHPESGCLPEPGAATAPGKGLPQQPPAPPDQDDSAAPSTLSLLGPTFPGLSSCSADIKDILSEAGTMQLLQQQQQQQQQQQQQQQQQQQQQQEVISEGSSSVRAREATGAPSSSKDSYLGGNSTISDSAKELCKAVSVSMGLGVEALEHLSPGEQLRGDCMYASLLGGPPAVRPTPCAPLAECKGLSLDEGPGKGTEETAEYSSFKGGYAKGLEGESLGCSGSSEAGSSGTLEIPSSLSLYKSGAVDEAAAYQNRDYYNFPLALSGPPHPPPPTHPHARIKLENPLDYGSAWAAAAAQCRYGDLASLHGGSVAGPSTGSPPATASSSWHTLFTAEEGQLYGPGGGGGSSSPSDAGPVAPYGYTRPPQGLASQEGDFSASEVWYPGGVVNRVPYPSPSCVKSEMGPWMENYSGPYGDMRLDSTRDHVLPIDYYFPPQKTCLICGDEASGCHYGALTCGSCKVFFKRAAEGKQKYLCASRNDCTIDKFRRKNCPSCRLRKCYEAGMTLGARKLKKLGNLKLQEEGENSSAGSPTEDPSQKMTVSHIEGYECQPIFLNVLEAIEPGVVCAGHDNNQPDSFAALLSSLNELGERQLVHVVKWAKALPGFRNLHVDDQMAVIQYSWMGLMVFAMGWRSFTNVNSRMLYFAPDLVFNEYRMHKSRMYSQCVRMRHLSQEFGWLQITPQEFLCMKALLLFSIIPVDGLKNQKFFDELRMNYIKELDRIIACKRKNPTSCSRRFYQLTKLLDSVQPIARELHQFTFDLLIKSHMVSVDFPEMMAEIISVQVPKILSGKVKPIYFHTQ
# Experiment: not given
# Settings: not given
row,Structure (SMILES),IC50
1,O=c1c(-c2ccc(O)cc2)coc2cc(O)cc(O)c12 [GENISTEIN],Not Active
2,CCC1=C(C)CN(C(=O)NCCc2ccc(S(=O)(=O)NC(=O)N[C@H]3CC[C@H](C)CC3)cc2)C1=O [GLIMEPIRIDE],Not Active
3,Nc1cc(-c2ccncc2)c[nH]c1=O [INAMRINONE],Not Active
4,N[C@@H](Cn1ccc(=O)c(O)c1)C(=O)O [L-MIMOSINE],Not Active
5,CN1C(=O)CN=C(c2ccccc2)c2cc([N+](=O)[O-])ccc21 [NIMETAZEPAM],Not Active
